Here are results for 1 molecule from patent publication US10910642B1, “Redox flow battery having ligand-metal complex” (Los Alamos National Security, LLC, priority 2017, dated 2021).

This data set can be described thus: Complex solubility in acetonitrile with 0.1 M tetrabutylammonium hexafluorophosphate. Format: physicochemical. As to conditions: room temperature. An excerpt:
FIG. 8 is a graph depicting the complex solubility in acetonitrile with 0.1 M tetrabutylammonium hexafluorophosphate.

As for `CCC(CC[N-]C(=O)c1ccccn1)[N-]C(=O)c1ccccn1.[Ni+2]` (stereo not shown) [Ni((Etbppn)], the maximum solubility is reported as 15 mM.
